Laboratory results published in paper PMC10046961, “High-Throughput Screening Assay for Detecting Drug-Induced Changes in Synchronized Neuronal Oscillations and Potential Seizure Risk Based on Ca^2+ Fluorescence Measurements in Human Induced Pluripotent Stem Cell (hiPSC)-Derived Neuronal 2D and 3D Cultures” (Cells, 2023).
Where two headings read alike, the source gives them in different places. Marks after values point to notes of the source that are not given here.

Experiments:
[1] = system: hiPSC-derived neurons co-cultured with human primary astrocytes in 2D; assay: Ca2+ transient oscillation assay (FDSS), 2D co-culture; type: cell-based; settings: for effect on peak number / Ca2+ neuronal oscillations, in words: 2D format; for activation at 0.37 µM / activation at 1.11 µM / activation at 3.33 µM / activation at 10 µM: Homo sapiens, 1 h; for activation at 0.37 µM / activation at 1.11 µM / activation at 3.33 µM / activation at 10 µM / Area under the curve - 2D Mean / Peak Number—2D Mean / Peak amplitude - 2D Mean / Peak width - 2D Mean / Peak-to-peak interval - 2D Mean: 60 min
Summary of the method: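 Cultures were 10,000 CW50065 hiPSC excitatory neurons plus 2500 primary human astrocytes per well. Recordings used Cal-520 dye in HBSS/HEPES/glucose at 37 °C, with a 470/540 nm read at 2 Hz. Oscillations were stabilized with 0.04% DMSO, read for 20 min, then read again 60 min after compound addition (final DMSO 0.1%).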

[2] = system: hiPSC-derived neurons co-cultured with human primary astrocytes in 3D; assay: Ca2+ transient oscillation assay (FDSS), 3D spheroids; type: cell-based; settings: for Area under the curve - 3D Mean / Peak Number—3D Mean / Peak amplitude - 3D Mean / Peak width - 3D Mean / Peak-to-peak interval - 3D Mean: 60 min
Summary of the method: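 Fura-2 fluorescence was read twice for 20 min each: a baseline 10 min after 0.04% DMSO, and again 60 min after compound addition at nominal final concentration. The 3D co-cultures (1:1 hiPSC neurons from a donor and human astrocytes, 8000 each) matured 5 weeks in BrainPhys medium after a 1-week differentiation.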

[3] = ref PharmaPendium, cited from earlier work
[4] = Table 1, peak plasma concentration in men, free therapeutic Cmax
[5] = Table 2, highest plasma concentration in humans after the therapeutic dose
[6] = concentration printed with the symbol

## Nc1ccncc1 [4-AP, 4-Aminopyridine]
[1]
  effect on peak number / Ca2+ neuronal oscillations, in words: significantly increased peak number
[1]; 2D, 4-AP 30 µM, kainic acid 100 µM
  response of positive controls on Ca2+ transient oscillations: significant responses
[1]; 4-AP at 30 µM, kainic acid at 10 µM
  change of Ca2+ neuronal oscillations (Figure 1): large increases
[1]; read-out: Area under the curve - 2D Mean
  activation at 0.37 µM: 39.5%
[1]; read-out: Peak Number—2D Mean
  activation at 0.37 µM: 9%
[1]; read-out: Peak amplitude - 2D Mean
  activation at 0.37 µM: 13.3%
[1]; read-out: Peak width - 2D Mean
  activation at 0.37 µM: 34%
[1]; read-out: Peak-to-peak interval - 2D Mean
  activation at 0.37 µM: -13%
[1]; 1.11 µM, read-out: Area under the curve - 2D Mean
  activation at 1.11 µM: 18.7%
[1]; 1.11 µM, read-out: Peak Number—2D Mean
  activation at 1.11 µM: 70.3%
[1]; 1.11 µM, read-out: Peak amplitude - 2D Mean
  activation at 1.11 µM: 7.8%
[1]; 1.11 µM, read-out: Peak width - 2D Mean
  activation at 1.11 µM: 14.3%
[1]; 1.11 µM, read-out: Peak-to-peak interval - 2D Mean
  activation at 1.11 µM: -29.8%
[1]; 3.33 µM, read-out: Area under the curve - 2D Mean
  activation at 3.33 µM: 17.6%
[1]; 3.33 µM, read-out: Peak Number—2D Mean
  activation at 3.33 µM: 85.8%
[1]; 3.33 µM, read-out: Peak amplitude - 2D Mean
  activation at 3.33 µM: 10.4%
[1]; 3.33 µM, read-out: Peak width - 2D Mean
  activation at 3.33 µM: 12.6%
[1]; 3.33 µM, read-out: Peak-to-peak interval - 2D Mean
  activation at 3.33 µM: -42.4%
[1]; 10 µM, read-out: Area under the curve - 2D Mean
  activation at 10 µM: 1.3%
[1]; 10 µM, read-out: Peak Number—2D Mean
  activation at 10 µM: 110%
[1]; 10 µM, read-out: Peak amplitude - 2D Mean
  activation at 10 µM: 8.5%
[1]; 10 µM, read-out: Peak width - 2D Mean
  activation at 10 µM: -6.3%
[1]; 10 µM, read-out: Peak-to-peak interval - 2D Mean
  activation at 10 µM: -49.8%
[2]; 0.37 µM
  Area under the curve - 3D Mean: 53.7 % change from baseline
  Peak Number—3D Mean: 16.7 % change from baseline
  Peak amplitude - 3D Mean: 44.3 % change from baseline
  Peak width - 3D Mean: 2.8 % change from baseline
  Peak-to-peak interval - 3D Mean: −9.2 % change from baseline
[2]; 1.11 µM
  Area under the curve - 3D Mean: 54.1 % change from baseline
  Peak Number—3D Mean: 62.4 * % change from baseline
  Peak amplitude - 3D Mean: 39.6 % change from baseline
  Peak width - 3D Mean: 7.7 % change from baseline
  Peak-to-peak interval - 3D Mean: −24.1 % change from baseline
[2]; 3.33 µM
  Area under the curve - 3D Mean: 97.2 % change from baseline
  Peak Number—3D Mean: 24.1 * % change from baseline
  Peak amplitude - 3D Mean: 46.1 % change from baseline
  Peak width - 3D Mean: 35.1 % change from baseline
  Peak-to-peak interval - 3D Mean: −17.6 % change from baseline
[2]; 10 µM
  Area under the curve - 3D Mean: 72.3 % change from baseline
  Peak Number—3D Mean: 89.0 ** % change from baseline
  Peak amplitude - 3D Mean: 42.8 % change from baseline
  Peak width - 3D Mean: 21.4 % change from baseline
  Peak-to-peak interval - 3D Mean: −47.2 % change from baseline
[2]; 3D, 4-AP 30 µM, kainic acid 100 µM
  response of positive controls on Ca2+ transient oscillations: significant responses
[3]; [4]
  Free Cmax: 25 to 75 nM
[3]; [5]
  Free Cmax: 25 to 75 nM

## N[C@@H](CCC(=O)O)C(=O)O [Glutamate]
[1]; 1.11 µM
  Area under the curve - 2D Mean: 5.8 % change from baseline
  Peak Number—2D Mean: −9.3 % change from baseline
  Peak amplitude - 2D Mean: −8.5 % change from baseline
  Peak width - 2D Mean: −3.4 % change from baseline
  Peak-to-peak interval - 2D Mean: −2.2 % change from baseline
[1]; 3.33 µM
  Area under the curve - 2D Mean: −13.0 % change from baseline
  Peak Number—2D Mean: −8.9 * % change from baseline
  Peak amplitude - 2D Mean: −26.9 % change from baseline
  Peak width - 2D Mean: −5.2 % change from baseline
  Peak-to-peak interval - 2D Mean: −17.4 % change from baseline
[1]; 10 µM
  Area under the curve - 2D Mean: −72.1 % change from baseline
  Peak Number—2D Mean: −60.3 * % change from baseline
  Peak amplitude - 2D Mean: −60.9 % change from baseline
  Peak width - 2D Mean: −67.3 % change from baseline
  Peak-to-peak interval - 2D Mean: 96.3 % change from baseline
[1]; 30 µM
  Area under the curve - 2D Mean: −100.0 % change from baseline
  Peak Number—2D Mean: −100.0 * % change from baseline
  Peak amplitude - 2D Mean: −100.0 % change from baseline
  Peak width - 2D Mean: −100.0 % change from baseline
  Peak-to-peak interval - 2D Mean: −100.0 % change from baseline
[1]
  effect on peak number / Ca2+ neuronal oscillations, in words: significantly reduced peak number
[1]; [6]
  Ca²⁺ Transient Peak Number (2D), concentration in parentheses: 1 µM
[2]; 1.11 µM
  Area under the curve - 3D Mean: 116.3 % change from baseline
  Peak Number—3D Mean: −7.0 % change from baseline
  Peak amplitude - 3D Mean: 85.4 % change from baseline
  Peak width - 3D Mean: 12.5 % change from baseline
  Peak-to-peak interval - 3D Mean: 11.6 % change from baseline
[2]; 3.33 µM
  Area under the curve - 3D Mean: 129.9 % change from baseline
  Peak Number—3D Mean: 12.3 % change from baseline
  Peak amplitude - 3D Mean: 108.3 % change from baseline
  Peak width - 3D Mean: 8.6 % change from baseline
  Peak-to-peak interval - 3D Mean: 3.1 % change from baseline
[2]; 10 µM
  Area under the curve - 3D Mean: 128.0 % change from baseline
  Peak Number—3D Mean: 20.0 % change from baseline
  Peak amplitude - 3D Mean: 103.9 % change from baseline
  Peak width - 3D Mean: 8.1 % change from baseline
  Peak-to-peak interval - 3D Mean: 0.4 % change from baseline
[2]; 30 µM
  Area under the curve - 3D Mean: 116.3 % change from baseline
  Peak Number—3D Mean: 8.4 % change from baseline
  Peak amplitude - 3D Mean: 107.0 % change from baseline
  Peak width - 3D Mean: 2.8 % change from baseline
  Peak-to-peak interval - 3D Mean: −1.6 % change from baseline
[2]; 3D-cultured
  effect on peak number of oscillations, in words: did not significantly change the peak number
[2]; [6]
  Ca²⁺ Transient Peak Number (3D), concentration in parentheses: 30 µM
[3]; [4]
  Free Cmax: 1000 to 2000 nM
[3]; [5]
  Free Cmax: 1000 to 2000 nM
